Experimental data as given in PubChem BioAssay AID1918949 (Molecular Pharmacology Branch, DTP, NCI, 2023).

System: K24384-001-R-PDC complex spheroid viability
Experiment: Anticancer human tumor K24384-001-R-PDC patient-derived pancreatic adenocarcinoma cell line growth inhibition
Settings: for IC50: curve of first compound; for viability, T/C: stronger effect = lower value
Summary of the method: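 Complex spheroids of tumor cells with HUVEC and human MSCs, exposed to iadademstat combined with other agents. Each agent tested in half-log steps from near clinical Cmax (else 10 microM top), DMSO ≤0.25%.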
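Also: spheroids exposed to agents for seven days before luminescence viability reading.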
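For viability, T/C in this document: 100% = DMSO vehicle control viability.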

CC1(C)CCC(CN2CCN(c3ccc(C(=O)NS(=O)(=O)c4ccc(NCC5CCOCC5)c([N+](=O)[O-])c4)c(Oc4cnc5[nH]ccc5c4)c3)CC2)=C(c2ccc(Cl)cc2)C1 + NC1CCC(NC2CC2c2ccccc2)CC1
IC50 (second compound 0.1 µM): 3.08 µM | IC50 (second compound 0.316 µM): 2.74 µM | IC50 (second compound 1 µM): 2.28 µM | IC50 (second compound 3.16 µM): 3.11 µM | IC50 (second compound 10 µM): 3.73 µM | viability, T/C (second compound 0.1 µM, first compound 0.0316 µM): 80.2% | viability, T/C (second compound 0.1 µM, first compound 0.1 µM): 95.5% | viability, T/C (second compound 0.1 µM, first compound 0.316 µM): 85% | viability, T/C (second compound 0.1 µM, first compound 1 µM): 89.8% | viability, T/C (second compound 0.1 µM, first compound 3.16 µM): 49.1% | viability, T/C (second compound 0.1 µM, first compound 10 µM): 0.77% | viability, T/C (second compound 0.316 µM, first compound 0.0316 µM): 79.5% | viability, T/C (second compound 0.316 µM, first compound 0.1 µM): 90.2% | viability, T/C (second compound 0.316 µM, first compound 0.316 µM): 88.9% | viability, T/C (second compound 0.316 µM, first compound 1 µM): 94.5% | viability, T/C (second compound 0.316 µM, first compound 3.16 µM): 44.6% | viability, T/C (second compound 0.316 µM, first compound 10 µM): 0.44% | viability, T/C (second compound 1 µM, first compound 0.0316 µM): 84% | viability, T/C (second compound 1 µM, first compound 0.1 µM): 86% | viability, T/C (second compound 1 µM, first compound 0.316 µM): 81.6% | viability, T/C (second compound 1 µM, first compound 1 µM): 81.6% | viability, T/C (second compound 1 µM, first compound 3.16 µM): 37.6% | viability, T/C (second compound 1 µM, first compound 10 µM): 0.69% | viability, T/C (second compound 3.16 µM, first compound 0.0316 µM): 87.3% | viability, T/C (second compound 3.16 µM, first compound 0.1 µM): 72.9% | viability, T/C (second compound 3.16 µM, first compound 0.316 µM): 77.3% | viability, T/C (second compound 3.16 µM, first compound 1 µM): 92.2% | viability, T/C (second compound 3.16 µM, first compound 3.16 µM): 49.6% | viability, T/C (second compound 3.16 µM, first compound 10 µM): 0.87% | viability, T/C (second compound 10 µM, first compound 0.0316 µM): 73.9% | viability, T/C (second compound 10 µM, first compound 0.1 µM): 92.9% | viability, T/C (second compound 10 µM, first compound 0.316 µM): 77.8% | viability, T/C (second compound 10 µM, first compound 1 µM): 76.9% | viability, T/C (second compound 10 µM, first compound 3.16 µM): 58.4% | viability, T/C (second compound 10 µM, first compound 10 µM): 0.69%
